Laboratory results from article PMC6994103 (PLoS Neglected Tropical Diseases, 2020).
Several values for one entry are separate records, joined by “and”; a condition that tells them apart may be missing. Equal values may be shown once.

Experiments:
[1] = tested on: T. cruzi epimastigotes CL Brener strain; assay: Trypanocidal activity in epimastigotes, CL Brener strain; format: cell-based, Trypanosoma cruzi; details: Y vs CL Brener
Method: VERO cells (5 x10^4 per well) were infected with trypomastigotes (2.5 ×10^5 per well) for 4 h. After this period, the infected cells were washed twice with phosphate-buffered saline (PBS), the MEM medium was replaced, and the cells were kept in culture at 37°C, 5% CO2. In order to obtain intracellular amastigotes, the cells were lysed 4 days after infection using a cell scraper, collected, washed twice with PBS (or MEM) and counted using a hemocytometer. Trypomastigotes were obtained from infected VERO cells as previously described.
Epimastigotes of T. cruzi were cultured as described above, in 24-wells plate at a start density of 0.5 x10^7 cells/mL in BHT medium. Parasites´ growth was evaluated at different concentrations of BZL, CV and CV structural analogues, and parasite proliferation was determined after 48 h. […] Growth was determined by counting in a Neubauer chamber and viability assays by using “Cell Titer 96 Aqueous One Solution Cell Proliferation Assay (MTS)” (Promega, Madison, WI, USA) according to the manufacturer’s instructions. Amastigotes were fixed with methanol, stained and mounted with Vectashield with DAPI (Vector Laboratories, Burlingame, CA, USA), and then the non-lysed cells were counted by using fluorescence microscopy.

[2] = tested on: T. cruzi epimastigotes Y strain; assay: Synergism BZL with LTD-CPH-CFZ in epimastigotes, Y strain (CompuSyn); format: cell-based, Trypanosoma cruzi
Method: Parasites´ growth was evaluated at different concentrations of BZL, CV and CV structural analogues, and parasite proliferation was determined after 48 h. […] Growth was determined by counting in a Neubauer chamber and viability assays by using “Cell Titer 96 Aqueous One Solution Cell Proliferation Assay (MTS)” (Promega, Madison, WI, USA) according to the manufacturer’s instructions. Amastigotes were fixed with methanol, stained and mounted with Vectashield with DAPI (Vector Laboratories, Burlingame, CA, USA), and then the non-lysed cells were counted by using fluorescence microscopy. Calculations were performed using CompuSyn software (http://combosyn.com) which is based on the median-effect equation [48] and its extension, the combination index.

O=C(Cn1ccnc1[N+](=O)[O-])NCc1ccccc1 [Benznidazole]
fold more sensitive Y vs CL Brener epimastigotes [1]: 1.3 fold
DRI BZL ([2]; BZL 0.10 µM + LTD-CPH-CFZ 3.40 µM (1/25 IC50)): 16.63 ± 2.78
DRI BZL ([2]; BZL 0.10 µM + LTD-CPH-CFZ 8.50 µM (1/10 IC50)): 73.67 ± 4.95
DRI BZL ([2]; BZL 0.10 µM + LTD-CPH-CFZ 17.00 µM (1/5 IC50)): 374.17 ± 32.50
DRI BZL ([2]; BZL 0.10 µM + LTD-CPH-CFZ 42.50 µM (1/2 IC50)): 923.66 ± 175.14
DRI BZL ([2]; BZL 1.00 µM + LTD-CPH-CFZ 3.40 µM (1/25 IC50)): 5.12 ± 0.06
DRI BZL ([2]; BZL 1.00 µM + LTD-CPH-CFZ 8.50 µM (1/10 IC50)): 13.27 ± 2.61
DRI BZL ([2]; BZL 1.00 µM + LTD-CPH-CFZ 17.00 µM (1/5 IC50), listed as BZL): 54 and 53.83 ± 6.79
DRI BZL ([2]; BZL 1.00 µM + LTD-CPH-CFZ 42.50 µM (1/2 IC50)): 157.01 ± 24.63
DRI BZL ([2]; BZL 5.00 µM + LTD-CPH-CFZ 3.40 µM (1/25 IC50)): 2.45 ± 0.40
DRI BZL ([2]; BZL 5.00 µM + LTD-CPH-CFZ 8.50 µM (1/10 IC50)): 5.48 ± 0.48
DRI BZL ([2]; BZL 5.00 µM + LTD-CPH-CFZ 17.00 µM (1/5 IC50)): 10.31 ± 1.72
DRI BZL ([2]; BZL 5.00 µM + LTD-CPH-CFZ 42.50 µM (1/2 IC50)): 63.09 ± 8.25
DRI BZL ([2]; BZL 10.00 µM + LTD-CPH-CFZ 3.40 µM (1/25 IC50)): 3.89 ± 0.11
DRI BZL ([2]; BZL 10.00 µM + LTD-CPH-CFZ 8.50 µM (1/10 IC50)): 5.45 ± 0.19
DRI BZL ([2]; BZL 10.00 µM + LTD-CPH-CFZ 17.00 µM (1/5 IC50)): 10.20 ± 0.87
DRI BZL ([2]; BZL 10.00 µM + LTD-CPH-CFZ 42.50 µM (1/2 IC50)): 45.77 ± 3.03
DRI BZL ([2]; BZL 20.00 µM + LTD-CPH-CFZ 3.40 µM (1/25 IC50)): 5.88 ± 0.56
DRI BZL ([2]; BZL 20.00 µM + LTD-CPH-CFZ 8.50 µM (1/10 IC50)): 7.44 ± 0.23
DRI BZL ([2]; BZL 20.00 µM + LTD-CPH-CFZ 17.00 µM (1/5 IC50)): 10.94 ± 1.56
DRI BZL ([2]; BZL 20.00 µM + LTD-CPH-CFZ 42.50 µM (1/2 IC50)): 68.51 ± 13.29
Dose BZL alone ([2]; same effect (Fa 0.112) as BZL 0.10 µM + LTD-CPH-CFZ 3.40 µM): 1.66 ± 0.28 µM
Dose BZL alone ([2]; same effect (Fa 0.257) as BZL 1.00 µM + LTD-CPH-CFZ 3.40 µM): 5.12 ± 0.06 µM
Dose BZL alone ([2]; same effect (Fa 0.324) as BZL 0.10 µM + LTD-CPH-CFZ 8.50 µM): 7.37 ± 0.49 µM
Dose BZL alone ([2]; same effect (Fa 0.430) as BZL 5.00 µM + LTD-CPH-CFZ 3.40 µM): 12.27 ± 2.01 µM
Dose BZL alone ([2]; same effect (Fa 0.447) as BZL 1.00 µM + LTD-CPH-CFZ 8.50 µM): 13.27 ± 2.61 µM
Dose BZL alone ([2]; same effect (Fa 0.609) as BZL 5.00 µM + LTD-CPH-CFZ 8.50 µM): 27.38 ± 2.41 µM
Dose BZL alone ([2]; same effect (Fa 0.673) as BZL 0.10 µM + LTD-CPH-CFZ 17.00 µM): 37.42 ± 3.25 µM
Dose BZL alone ([2]; same effect (Fa 0.682) as BZL 10.00 µM + LTD-CPH-CFZ 3.40 µM): 38.95 ± 1.06 µM
Dose BZL alone ([2]; same effect (Fa 0.732) as BZL 5.00 µM + LTD-CPH-CFZ 17.00 µM): 51.57 ± 8.60 µM
Dose BZL alone ([2]; same effect (Fa 0.740) as BZL 1.00 µM + LTD-CPH-CFZ 17.00 µM): 53.83 ± 6.79 µM
Dose BZL alone ([2]; same effect (Fa 0.743) as BZL 10.00 µM + LTD-CPH-CFZ 8.50 µM): 54.45 ± 1.86 µM
Dose BZL alone ([2]; same effect (Fa 0.821) as BZL 0.10 µM + LTD-CPH-CFZ 42.50 µM): 92.37 ± 17.51 µM
Dose BZL alone ([2]; same effect (Fa 0.835) as BZL 10.00 µM + LTD-CPH-CFZ 17.00 µM): 101.97 ± 8.68 µM
Dose BZL alone ([2]; same effect (Fa 0.852) as BZL 20.00 µM + LTD-CPH-CFZ 3.40 µM): 117.55 ± 11.14 µM
Dose BZL alone ([2]; same effect (Fa 0.877) as BZL 20.00 µM + LTD-CPH-CFZ 8.50 µM): 148.83 ± 4.56 µM
Dose BZL alone ([2]; same effect (Fa 0.881) as BZL 1.00 µM + LTD-CPH-CFZ 42.50 µM): 157.01 ± 24.63 µM
Dose BZL alone ([2]; same effect (Fa 0.909) as BZL 20.00 µM + LTD-CPH-CFZ 17.00 µM): 218.81 ± 31.25 µM
Dose BZL alone ([2]; same effect (Fa 0.933) as BZL 5.00 µM + LTD-CPH-CFZ 42.50 µM): 315.46 ± 41.27 µM
Dose BZL alone ([2]; same effect (Fa 0.951) as BZL 10.00 µM + LTD-CPH-CFZ 42.50 µM): 457.73 ± 30.35 µM
